How the values were obtained:
[1] = molecular target: T1, DNA ligase 1 (Homo sapiens, UniProt P18858); assay: Inhibition of human DNA ligase 1 using nicked DNA as substrate after 30 mins relative to control
[2] = tested on: 4T1; assay: Antiproliferative activity against mouse 4T1 cells after 48 hrs by MTT assay; format: functional, cell-based; conditions: 4T1, 48 h
[3] = molecular target: T1, DNA ligase 1; assay: Inhibition of human DNA ligase 1 at 25 uM using nicked DNA as substrate after 30 mins relative to control
[4] = tested on: MDA-MB-231; assay: Antiproliferative activity against human MDA-MB-231 cells after 48 hrs by MTT assay; format: functional, cell-based; conditions: MDA-MB-231, 48 h
[5] = tested on: MDA-MB-231; assay: Antiproliferative activity against human MDA-MB-231 cells at 10 uM after 48 hrs by MTT assay relative to control; format: functional; conditions: MDA-MB-231, 48 h
[6] = molecular target: T1, DNA ligase 1; assay: Inhibition of human DNA ligase 1
[7] = molecular target: T1, DNA ligase 1; assay: Inhibition of human DNA ligase 1 using 52-mer DNA/25-mer DNA/27-mer DNA as substrate
[8] = tested on: HepG2; assay: Antiproliferative activity against human HepG2 cells after 48 hrs by MTT assay; format: functional, cell-based; conditions: HepG2, 48 h
[9] = tested on: HEK293; assay: Cytotoxicity against HEK293 cells after 48 hrs by MTT assay; format: cell-based; conditions: Homo sapiens, HEK293, 48 h
[10] = molecular target: T1, DNA ligase 1; assay: Inhibition of human DNA ligase 1 at 50 uM using 52-mer DNA/25-mer DNA/27-mer DNA as substrate by fluorescence assay relative to control
[11] = Antiproliferative activity against human 46BR.1G1 cells after 48 hrs by MTT assay; format: functional, cell-based
[12] = tested on: DLD-1; assay: Antiproliferative activity against human DLD1 cells after 48 hrs by MTT assay; format: functional, cell-based; conditions: DLD-1, 48 h
[13] = tested on: HCT-116; assay: Antiproliferative activity against human HCT116 cells relative to control; format: functional
[14] = molecular target: T2, DNA ligase 3 (Homo sapiens, UniProt P49916); assay: Competitive inhibition of human DNA ligase 3 using nicked DNA as substrate by high-throughput fluorescence energy transfer-based DNA joining assay
T2 sequence (P49916 whole entry): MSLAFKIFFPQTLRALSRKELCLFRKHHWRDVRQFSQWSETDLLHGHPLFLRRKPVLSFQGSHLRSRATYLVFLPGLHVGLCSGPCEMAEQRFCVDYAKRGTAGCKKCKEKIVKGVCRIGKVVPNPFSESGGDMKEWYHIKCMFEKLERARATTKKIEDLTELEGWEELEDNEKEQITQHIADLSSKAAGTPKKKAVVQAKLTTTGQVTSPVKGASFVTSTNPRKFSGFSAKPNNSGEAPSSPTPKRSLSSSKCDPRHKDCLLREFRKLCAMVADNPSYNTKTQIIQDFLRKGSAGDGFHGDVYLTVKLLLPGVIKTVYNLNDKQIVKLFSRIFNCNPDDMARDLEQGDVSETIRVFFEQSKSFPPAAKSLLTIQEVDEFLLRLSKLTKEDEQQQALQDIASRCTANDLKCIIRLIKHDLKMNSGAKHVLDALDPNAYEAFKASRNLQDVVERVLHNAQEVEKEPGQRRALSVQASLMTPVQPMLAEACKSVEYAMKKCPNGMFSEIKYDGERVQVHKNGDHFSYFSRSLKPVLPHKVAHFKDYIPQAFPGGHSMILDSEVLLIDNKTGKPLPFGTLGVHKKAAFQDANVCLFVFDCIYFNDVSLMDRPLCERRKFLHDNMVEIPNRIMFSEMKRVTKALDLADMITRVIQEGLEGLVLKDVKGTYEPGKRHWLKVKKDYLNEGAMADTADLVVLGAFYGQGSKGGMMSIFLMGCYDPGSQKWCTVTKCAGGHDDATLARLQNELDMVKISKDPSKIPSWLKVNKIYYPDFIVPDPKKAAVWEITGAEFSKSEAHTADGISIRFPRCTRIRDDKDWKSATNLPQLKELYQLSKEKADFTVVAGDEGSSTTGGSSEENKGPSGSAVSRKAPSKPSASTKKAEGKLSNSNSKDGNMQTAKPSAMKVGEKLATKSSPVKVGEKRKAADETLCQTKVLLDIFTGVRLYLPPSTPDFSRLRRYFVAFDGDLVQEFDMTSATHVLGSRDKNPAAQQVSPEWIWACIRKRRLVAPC

[15] = molecular target: T1, DNA ligase 1; assay: Competitive inhibition of human DNA ligase 1 using nicked DNA as substrate by high-throughput fluorescence energy transfer-based DNA joining assay
[16] = molecular target: T3, DNA ligase 4 (Homo sapiens, UniProt P49917); assay: Competitive inhibition of human DNA ligase 4 using nicked DNA as substrate by high-throughput fluorescence energy transfer-based DNA joining assay
T3 sequence (P49917 whole entry): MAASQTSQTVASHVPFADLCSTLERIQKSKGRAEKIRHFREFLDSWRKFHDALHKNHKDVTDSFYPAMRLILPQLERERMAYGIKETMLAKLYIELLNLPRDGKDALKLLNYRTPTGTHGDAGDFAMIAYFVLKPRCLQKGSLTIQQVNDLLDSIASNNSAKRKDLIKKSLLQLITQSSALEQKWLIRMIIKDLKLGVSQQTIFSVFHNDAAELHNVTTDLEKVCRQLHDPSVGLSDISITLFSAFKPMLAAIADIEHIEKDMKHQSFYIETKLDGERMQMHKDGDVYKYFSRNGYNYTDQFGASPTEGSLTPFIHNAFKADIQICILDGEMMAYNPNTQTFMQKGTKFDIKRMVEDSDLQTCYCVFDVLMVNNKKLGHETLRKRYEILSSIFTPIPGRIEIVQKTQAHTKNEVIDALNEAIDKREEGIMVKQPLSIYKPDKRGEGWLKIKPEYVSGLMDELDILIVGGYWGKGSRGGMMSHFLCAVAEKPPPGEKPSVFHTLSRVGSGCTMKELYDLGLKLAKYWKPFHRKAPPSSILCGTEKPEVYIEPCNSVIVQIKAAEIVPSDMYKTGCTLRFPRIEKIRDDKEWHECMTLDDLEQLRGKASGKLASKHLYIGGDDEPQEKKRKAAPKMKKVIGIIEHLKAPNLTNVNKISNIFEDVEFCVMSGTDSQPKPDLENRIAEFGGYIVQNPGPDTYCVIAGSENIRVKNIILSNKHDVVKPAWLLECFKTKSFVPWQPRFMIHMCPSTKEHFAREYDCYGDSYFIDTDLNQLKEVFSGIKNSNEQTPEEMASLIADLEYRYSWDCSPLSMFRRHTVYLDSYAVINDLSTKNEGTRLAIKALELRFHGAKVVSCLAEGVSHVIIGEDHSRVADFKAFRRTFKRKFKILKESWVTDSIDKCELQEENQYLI

[17] = molecular target: T1, DNA ligase 1; assay: Inhibition of human DNA ligase 1 at 100 uM using nicked DNA as substrate by high-throughput fluorescence energy transfer-based DNA joining assay relative to control
[18] = molecular target: T1, DNA ligase 1; assay: Uncompetitive inhibition of human DNA ligase 1 using nicked DNA as substrate by high-throughput fluorescence energy transfer-based DNA joining assay

T1 sequence (P18858 whole entry): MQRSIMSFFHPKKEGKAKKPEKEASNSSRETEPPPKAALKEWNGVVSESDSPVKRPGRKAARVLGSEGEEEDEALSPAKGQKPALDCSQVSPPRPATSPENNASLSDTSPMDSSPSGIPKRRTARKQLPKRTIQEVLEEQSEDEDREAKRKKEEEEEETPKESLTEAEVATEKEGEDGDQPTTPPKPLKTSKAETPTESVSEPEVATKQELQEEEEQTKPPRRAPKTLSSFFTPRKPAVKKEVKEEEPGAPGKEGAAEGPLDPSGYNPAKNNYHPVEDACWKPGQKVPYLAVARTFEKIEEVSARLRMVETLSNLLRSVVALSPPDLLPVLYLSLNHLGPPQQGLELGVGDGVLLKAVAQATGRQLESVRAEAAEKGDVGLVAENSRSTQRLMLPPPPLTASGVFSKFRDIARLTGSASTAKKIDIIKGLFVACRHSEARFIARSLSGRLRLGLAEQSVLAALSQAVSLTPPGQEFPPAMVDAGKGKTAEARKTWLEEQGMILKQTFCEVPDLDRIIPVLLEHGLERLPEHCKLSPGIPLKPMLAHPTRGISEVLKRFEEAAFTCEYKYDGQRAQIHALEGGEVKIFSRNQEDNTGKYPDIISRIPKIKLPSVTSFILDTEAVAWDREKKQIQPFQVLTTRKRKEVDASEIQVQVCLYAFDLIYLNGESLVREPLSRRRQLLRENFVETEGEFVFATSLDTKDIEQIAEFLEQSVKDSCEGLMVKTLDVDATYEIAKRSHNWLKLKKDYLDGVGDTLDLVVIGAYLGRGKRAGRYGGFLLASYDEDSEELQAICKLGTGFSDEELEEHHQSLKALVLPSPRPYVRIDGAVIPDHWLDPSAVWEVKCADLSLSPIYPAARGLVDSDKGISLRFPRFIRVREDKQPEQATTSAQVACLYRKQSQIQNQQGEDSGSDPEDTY

## COc1cc(/C=C/c2cc(=O)oc3c2ccc2ccccc23)cc(OC)c1
[1]
  inhibition: 99.3%
[2]
  IC50: 11.6 µM
[3]
  inhibition: < 50%
[4]
  IC50: 12.8 µM
[5]
  inhibition at 10 µM: > 50%

## N[C@H](CO)Cc1cc(I)c(Oc2ccc(O)cc2)c(I)c1
[6]
  IC50: 1 µM

## O=C1c2cc(Cl)ccc2NC(c2ccc(Cl)c(Cl)c2)c2cccn21 (stereo unspecified)
[7]
  IC50: 15.8 µM

## O=[N+]([O-])c1ccc(N/N=C(/c2ccc(O)cc2)c2cccc3ccccc23)c([N+](=O)[O-])c1
[8]
  IC50: 6.93 µM
[4]
  IC50: 7.02 µM
[9]
  IC50: 12.6 µM
[10]
  inhibition: 93.1%
[11]
  IC50: > 25 µM
[12]
  IC50: 6.78 µM

## Nc1nc(S)nc(O)c1/N=C/c1ccccc1
[13]
  Activity: 70%
[14]
  IC50: 9 µM
[15]
  IC50: 5 µM
[16]
  IC50: 5 µM
[17]
  inhibition: 68.8%

## O=C1c2cc(Cl)ccc2NC(c2ccc(Br)cc2)c2cccn21 (stereo unspecified)
[7]
  IC50: 23.1 µM

## Cc1c(Br)cc(NCC(=O)N/N=C/c2cc([N+](=O)[O-])ccc2O)cc1Br
[13]
  Activity: 70%
[14]
  IC50: 10 µM
[15]
  IC50: 10 µM
[17]
  inhibition: 78.3%

## O=c1[nH]ncc(N/N=C/c2ccc(O)c([N+](=O)[O-])c2)c1Cl
[13]
  Activity: 70%
[18]
  IC50: 12 µM
[17]
  inhibition: 59.8%

Source: ChEMBL document CHEMBL4334494, “Recent advances in the targeting of human DNA ligase I as a potential new strategy for cancer treatment” (Eur J Med Chem, 2019)
